Test system: sperm cells
Experiment: effects of detection agents on the motility of sperm cells (microscopic analysis)
Format: cell-based
Conditions: 60 min, ambient temperature; for Cells: cells in total / Cells: motile cells: 50:50 with sperm sample 60/72
Method: The possible effects of two detection agents, MTT and crystal violet, on the motility of sperm cells were tested. Stock solutions of MTT and crystal violet of 5 mg/ml and 1 mg/ml, respectively, were prepared, and these were diluted two-fold serially. The detection agent solutions were mixed with sperm samples comprising 60 million motile cells per milliliter and 72 million cells per milliliter in total (denoted 60/72) in a 50:50 ratio and the mixtures were incubated for 60 min at ambient temperature before analysing the cells microscopically.

Cells: cells in total (Crystal violet 0.125 mg/ml): 56 million per milliliter
Cells: motile cells (Crystal violet 0.125 mg/ml): 37 million per milliliter
Cells: cells in total (Crystal violet 0.25 mg/ml): 56 million per milliliter
Cells: motile cells (Crystal violet 0.25 mg/ml): 32 million per milliliter
Cells: cells in total (Crystal violet 0.5 mg/ml): 43 million per milliliter
Cells: motile cells (Crystal violet 0.5 mg/ml): 27 million per milliliter
Cells: cells in total (Crystal violet 1 mg/ml): 63 million per milliliter
Cells: motile cells (Crystal violet 1 mg/ml): 40 million per milliliter
ratio of motile versus non-motile cells (% motile) (concentrations of Table 3): not affected
Structure (SMILES): CN(C)c1ccc(C(=C2C=CC(=[N+](C)C)C=C2)c2ccc(N(C)C)cc2)cc1 [Crystal violet, crystal violet]
